Target: T1, CFTR (Homo sapiens, UniProt P13569)
T1 construct: results in the phosphorylation and opening of CFTR anion channels
Assay: T84 assay (FLIPR membrane potential, forskolin/IBMX-stimulated CFTR channel activity)
Assay type: cell-based
Details: average of at least 2 runs unless annotated n = 1
Procedure: (§1) For example, Human colonic T84 cells can be acquired from the European Collection of Cell Cultures (ECACC) and grown in standard culture conditions as described by the supplier. On the day before assay 25,000 T84 cells per well are plated into standard black walled, clear bottom 384-well assay plates in standard growth medium consisting of DMEM:F12 with 10% FBS and incubated overnight. On the day of the assay the plates are washed using a standard assay buffer (HBSS with 10 mM Hepes) and incubated for 15 minutes in serum free cell culture medium before the addition of a commercially available membrane potential sensitive fluorescent dye (FLIPR Red membrane potential dye, Molecular Devices Corporation). T84 cells are incubated with the FLIPR Red membrane potential dye for 45 minutes in the presence and absence of test compound before being transferred to a commercially available fluorescence imaging plate reader (FLIPR384, Molecular Devices Corporation). Fluorescence levels are monitored continuously every second for 150 seconds; after an initial 10 second baseline, CFTR channel activity is stimulated through the addition of 10 μM forskolin in the presence of 100 μM of the phosphodiesterase inhibitor iso-butyl-methylxanthine (IBMX). Addition of the forskolin leads to the activation of intracellular adenylyl cylase 1, elevating cAMP levels and results in the phosphorylation and opening of CFTR anion channels. CFTR channel opening causes chloride ion efflux and subsequent depolarization of the cells, which is measured by an increase in fluorescence. CFTR inhibitor compounds prevent cell depolarization and the associated increase in fluorescence.
as §1, with “Human colonic” for “For example, Human colonic”, “T84 cells are acquired from” for “T84 cells can be acquired from”, “(ECACC) and are grown in” for “(ECACC) and grown in”
Unless otherwise indicated, the IC50 values are reported as an average of at least 2 runs. Where only 1 run is used, this is indicated by the annotation “n=1.”

T1 sequence (P13569 whole entry): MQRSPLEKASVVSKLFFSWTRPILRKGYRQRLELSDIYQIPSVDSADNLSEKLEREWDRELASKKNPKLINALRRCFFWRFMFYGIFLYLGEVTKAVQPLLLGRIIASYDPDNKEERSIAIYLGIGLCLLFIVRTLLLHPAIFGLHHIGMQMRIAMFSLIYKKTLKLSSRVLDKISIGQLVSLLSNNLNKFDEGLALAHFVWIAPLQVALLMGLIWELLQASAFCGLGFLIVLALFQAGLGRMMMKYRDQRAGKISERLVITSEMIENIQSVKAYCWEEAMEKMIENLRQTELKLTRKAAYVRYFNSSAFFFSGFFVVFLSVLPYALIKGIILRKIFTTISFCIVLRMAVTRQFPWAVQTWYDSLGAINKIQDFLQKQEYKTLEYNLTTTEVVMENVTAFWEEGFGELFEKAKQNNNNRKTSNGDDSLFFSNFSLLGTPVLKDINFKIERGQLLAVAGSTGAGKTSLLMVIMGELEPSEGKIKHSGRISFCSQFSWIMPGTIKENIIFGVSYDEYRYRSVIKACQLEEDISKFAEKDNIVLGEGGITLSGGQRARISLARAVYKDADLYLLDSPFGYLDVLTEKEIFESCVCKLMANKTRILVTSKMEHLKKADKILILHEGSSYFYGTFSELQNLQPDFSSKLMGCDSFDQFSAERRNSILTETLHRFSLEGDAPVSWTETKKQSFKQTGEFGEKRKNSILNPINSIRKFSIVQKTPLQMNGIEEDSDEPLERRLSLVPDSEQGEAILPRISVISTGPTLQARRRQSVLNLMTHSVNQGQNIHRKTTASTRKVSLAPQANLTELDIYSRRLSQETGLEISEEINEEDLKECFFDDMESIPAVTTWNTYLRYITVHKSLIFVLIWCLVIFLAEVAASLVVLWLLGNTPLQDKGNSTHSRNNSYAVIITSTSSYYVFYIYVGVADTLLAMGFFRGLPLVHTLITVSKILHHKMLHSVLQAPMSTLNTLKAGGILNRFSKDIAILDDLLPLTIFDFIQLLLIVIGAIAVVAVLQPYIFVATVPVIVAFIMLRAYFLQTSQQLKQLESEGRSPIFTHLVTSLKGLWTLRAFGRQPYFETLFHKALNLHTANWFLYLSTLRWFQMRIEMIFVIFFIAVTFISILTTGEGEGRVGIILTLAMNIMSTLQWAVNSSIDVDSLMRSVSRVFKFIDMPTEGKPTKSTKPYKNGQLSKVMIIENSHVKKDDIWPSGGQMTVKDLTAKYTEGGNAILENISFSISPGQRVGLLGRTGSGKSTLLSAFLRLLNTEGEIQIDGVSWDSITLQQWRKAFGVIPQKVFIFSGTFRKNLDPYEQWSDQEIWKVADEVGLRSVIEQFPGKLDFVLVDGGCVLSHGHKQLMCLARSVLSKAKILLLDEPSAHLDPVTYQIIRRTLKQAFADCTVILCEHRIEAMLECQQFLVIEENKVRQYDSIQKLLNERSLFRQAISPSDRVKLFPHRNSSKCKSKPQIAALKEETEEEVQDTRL

| IC50 | SMILES |
| --- | --- |
| 20.8 µM | Oc1c(Cl)cc(-c2ccc(OCc3cnc(Br)s3)nn2)cc1Cl [Compound 105, 4-(6-((2-bromothiazol-5-yl)methoxy)pyridazin-3-yl)-2,6-dichlorophenol] |
| 2.76 µM | Oc1c(Cl)cc(-c2ccc(OCc3ccccc3)nn2)cc1Cl [Compound 119, 4-(6-(benzyloxy)pyridazin-3-yl)-2,6-dichlorophenol] |
| 0.06 µM | CN(Cc1ccccc1)c1ccc(-c2cc(Cl)c(O)c(Cl)c2)nn1 [Compound 118, 4-(6-(benzyl(methyl)amino)pyridazin-3-yl)-2,6-dichlorophenol] |
| 25.3 µM | Oc1c(Br)cc(-c2ccc(OCCc3cccc4ccccc34)nn2)cc1Br [Compound 100, 2,6-dibromo-4-(6-(2-(naphthalen-1-yl)ethoxy)pyridazin-3-yl)phenol] |
| 6.01 µM | Oc1c(Br)cc(-c2ccc(OCc3ccc(F)cc3Cl)nn2)cc1Br [Compound 89, 2,6-dibromo-4-(6-(2-chloro-4-fluorobenzyloxy)pyridazin-3-yl)phenol] |
| 26.1 µM | Oc1c(Br)cc(-c2ccc(OCc3cccc(Br)c3)nn2)cc1Br [Compound 91, 2,6-dibromo-4-(6-(3-bromobenzyloxy)pyridazin-3-yl)phenol] |
| 4.2 µM | Oc1c(Br)cc(-c2ccc(OCCc3ccc(Br)cc3)nn2)cc1Br [Compound 93, 2,6-dibromo-4-(6-(4-bromophenethoxy)pyridazin-3-yl)phenol] |
| 8.03 µM | Oc1c(Br)cc(-c2ccc(OCCc3cccc(Cl)c3Cl)nn2)cc1Br [Compound 94, 2,6-dibromo-4-(6-(2,3-dichlorophenethoxy)pyridazin-3-yl)phenol] |
| 17.6 µM | CC(Oc1ccc(-c2cc(Br)c(O)c(Br)c2)nn1)c1cccc(Cl)c1 (stereo not drawn) [Compound 90, 2,6-dibromo-4-(6-(1-(3-chlorophenyl)ethoxy)pyridazin-3-yl)phenol] |
| 19.5 µM | Oc1c(Cl)cc(-c2ccc(OCc3ccsc3)nn2)cc1Cl [Compound 106, 2,6-dichloro-4-(6-(thiophen-3-ylmethoxy)pyridazin-3-yl)phenol] |
| 5.75 µM | Oc1c(Cl)cc(-c2ccc(OCCc3ccccc3)nn2)cc1Cl [Compound 103, 2,6-dichloro-4-(6-phenethoxypyridazin-3-yl)phenol] |
| 3.74 µM | Oc1c(Cl)cc(-c2ccc(OCc3ccc(F)cc3Cl)nn2)cc1Cl [Compound 96, 2,6-dichloro-4-(6-(2-chloro-4-fluorobenzyloxy)pyridazin-3-yl)phenol] |
| 6.84 µM | Oc1c(Cl)cc(-c2ccc(OCCc3cccs3)nn2)cc1Cl [Compound 102, 2,6-dichloro-4-(6-(2-(thiophen-2-yl)ethoxy)pyridazin-3-yl)phenol] |

More lines, now with the values behind:

| SMILES | IC50 |
| --- | --- |
| CCCN(Cc1ccccc1)c1ccc(-c2cc(Cl)c(O)c(Cl)c2)nn1 [Compound 126, 4-(6-(benzyl(propyl)amino)pyridazin-3-yl)-2,6-dichlorophenol] | 0.02 µM |
| OCCN(Cc1ccc(F)cc1)c1ccc(-c2cc(Cl)c(O)c(Cl)c2)nn1 [Compound 111, 2,6-dichloro-4-(6-((4-fluorobenzyl)(2-hydroxyethyl)amino)pyridazin-3-yl)phenol] | 0.37 µM |
| Oc1c(Cl)cc(-c2ccc(NCc3cc(F)ccc3F)nn2)cc1Cl [Compound 117, 2,6-dichloro-4-(6-(2,5-difluorobenzylamino)pyridazin-3-yl)phenol] | 1.36 µM |
| Oc1c(Cl)cc(-c2ccc(NCc3ccc(Cl)c(Cl)c3)nn2)cc1Cl [Compound 137, 2,6-dichloro-4-(6-(3,4-dichlorobenzylamino)pyridazin-3-yl)phenol] | 6 µM |
| CCN(Cc1ccc(OC)c(F)c1)c1ccc(-c2cc(Cl)c(O)c(Cl)c2)nn1 [Compound 131, 2,6-dichloro-4-(6-(ethyl(3-fluoro-4-methoxybenzyl)amino)pyridazin-3-yl)phenol] | 1.46 µM |
| OCCN(Cc1ccccn1)c1ccc(-c2cc(Cl)c(O)c(Cl)c2)nn1 [Compound 113, 2,6-dichloro-4-(6-((2-hydroxyethyl)(pyridin-2-ylmethyl)amino)pyridazin-3-yl)phenol] | 17.6 µM |
| OCCN(Cc1ccccc1Cl)c1ccc(-c2cc(Cl)c(O)c(Cl)c2)nn1 [Compound 112, 2,6-dichloro-4-(6-((2-chlorobenzyl)(2-hydroxyethyl)amino)pyridazin-3-yl)phenol] | 1.53 µM |
| Oc1c(Cl)cc(-c2ccc(N(Cc3ccccc3)Cc3ccccc3)nn2)cc1Cl [Compound 133, 2,6-dichloro-4-(6-(dibenzylamino)pyridazin-3-yl)phenol] | 0.38 µM |
| CN(Cc1ccc(F)c(F)c1)c1ccc(-c2cc(Cl)c(O)c(Cl)c2)nn1 [Compound 121, 2,6-dichloro-4-(6-((3,4-difluorobenzyl)(methyl)amino)pyridazin-3-yl)phenol] | 0.23 µM |
| Oc1c(Cl)cc(-c2ccc(N3CCc4ccccc4C3)nn2)cc1Cl [Compound 122, 2,6-dichloro-4-(6-(3,4-dihydroisoquinolin-2(1H)-yl)pyridazin-3-yl)phenol] | 0.15 µM |
| COCCN(Cc1ccccc1)c1ccc(-c2cc(Cl)c(O)c(Cl)c2)nn1 [Compound 114, 4-(6-(benzyl(2-methoxyethyl)amino)pyridazin-3-yl)-2,6-dichlorophenol] | 0.13 µM |
| OCCN(Cc1cccc(OCc2ccccc2Cl)c1)c1ccc(-c2cc(Cl)c(O)c(Cl)c2)nn1 [Compound 130, 2,6-dichloro-4-(6-((3-(2-chlorobenzyloxy)benzyl)(2-hydroxyethyl)amino)pyridazin-3-yl)phenol] | 2.27 µM |
| CCN(Cc1ccc(OCc2ccccc2)cc1)c1ccc(-c2cc(Cl)c(O)c(Cl)c2)nn1 [Compound 128, 4-(6-((4-(benzyloxy)benzyl)(ethyl)amino)pyridazin-3-yl)-2,6-dichlorophenol] | 0.37 µM |
| Oc1c(Cl)cc(-c2ccc(NCc3ccccc3)nn2)cc1Cl [Compound 110, 4-(6-(benzylamino)pyridazin-3-yl)-2,6-dichlorophenol] | 0.73 µM |
| Oc1c(Cl)cc(-c2ccc(N3CCC(Cc4ccccc4)CC3)nn2)cc1Cl [Compound 136, 4-(6-(4-benzylpiperidin-1-yl)pyridazin-3-yl)-2,6-dichlorophenol] | 24.9 µM |
| Oc1c(Cl)cc(-c2ccc(NCc3cc(F)cc(C(F)(F)F)c3)nn2)cc1Cl [Compound 138, 2,6-dichloro-4-(6-(3-fluoro-5-(trifluoromethyl)benzylamino)pyridazin-3-yl)phenol] | 9.58 µM |
| CN(Cc1ccc(-c2ccncc2)cc1)c1ccc(-c2cc(Cl)c(O)c(Cl)c2)nn1 [Compound 125, 2,6-dichloro-4-(6-(methyl(4-(pyridin-4-yl)benzyl)amino)pyridazin-3-yl)phenol] | 2.05 µM |
| OCCN(Cc1cccnc1)c1ccc(-c2cc(Cl)c(O)c(Cl)c2)nn1 [Compound 109, 2,6-dichloro-4-(6-((2-hydroxyethyl)(pyridin-3-ylmethyl)amino)pyridazin-3-yl)phenol] | 4.72 µM |
| OCCN(Cc1ccncc1)c1ccc(-c2cc(Cl)c(O)c(Cl)c2)nn1 [Compound 116, 2,6-dichloro-4-(6-((2-hydroxyethyl)(pyridin-4-ylmethyl)amino)pyridazin-3-yl)phenol] | 16.5 µM |
| CN(Cc1ccc2ncccc2c1)c1ccc(-c2cc(Cl)c(O)c(Cl)c2)nn1 [Compound 132, 2,6-dichloro-4-(6-(methyl(quinolin-6-ylmethyl)amino)pyridazin-3-yl)phenol] | 6.69 µM |
